According to patent US11192852B2, “Pyrazolyl and pyrimidinyl tricyclic enones as antioxidant inflammation modulators” (REATA PHARMACEUTICALS, INC., priority 2010, dated 2021):
pIC50: −log10 of the molar value.

These compounds were tested on IFNγ-induced NO production in RAW264.7 mouse macrophages (assay: Suppression of IFNγ-induced nitric oxide production (Griess reagent)). Settings: Mus musculus, RAW264.7, RAW264.7 cells, 2 h pre-treatment (0-200 nM), then IFNγ 24 h; normalized to cell viability.
Type: cell-based
Source text: Nitric Oxide Production and Cell Viability.

Going from Cn1ncc2c1[C@@]1(C)C=C(C#N)C(=O)C(C)(C)[C@@H]1CC2 [TX63342] to CC1(C)C(=O)C(C#N)=C[C@]2(C)c3[nH]ncc3CC[C@@H]12 [TX63467], the pIC50 falls from 6.74 to less than 6.70.

CC1(C)C(=O)C(C#N)=C[C@]2(C)[C@@H](O)CCC[C@@H]12 [TX63363] and COCO[C@H]1CCC[C@H]2C(C)(C)C(=O)C(C#N)=C[C@]12C [TX63364] cannot be ordered by pIC50: less than 6.70 for the first, less than 6.70 for the second.

Cn1cc2c(n1)[C@@]1(C)C=C(C#N)C(=O)C(C)(C)[C@H]1C2 [TX63436] and CC(=O)n1cc2c(n1)[C@@]1(C)C=C(C#N)C(=O)C(C)(C)[C@@H]1CC2 [TX63463] cannot be ordered by pIC50: less than 6.70 for the first, no more than 6.69 for the second.

Going from CC1(C)C(=O)C(C#N)=C[C@]2(C)c3nn(C4CCCCC4)cc3CC[C@@H]12 [TX63444] to CC1(C)C(=O)C(C#N)=C[C@]2(C)c3nn(CCO)cc3CC[C@@H]12 [TX63464], the pIC50 falls from 6.85 to less than 6.70. The first is the more potent here.

Cn1nc2c(c1Br)CC[C@H]1C(C)(C)C(=O)C(C#N)=C[C@]21C [TX63445] and Cn1nc2c(c1-c1cccc(Cl)c1)CC[C@H]1C(C)(C)C(=O)C(C#N)=C[C@]21C [TX63485] are within 0.2 log units of each other in pIC50: 7.42 for the first, 7.47 for the second.

CC1(C)C(=O)C(C#N)=C[C@]2(C)c3nn(C(C)(C)C)cc3CC[C@@H]12 [TX63450] and COC(=O)n1cc2c(n1)[C@@]1(C)C=C(C#N)C(=O)C(C)(C)[C@@H]1CC2 [TX63462] are the same in pIC50: 6.83 for the first, 6.83 for the second.

Compared with CC1(C)C(=O)C(C#N)=C[C@]2(C)C(=O)c3cnn(C(C)(C)C)c3C[C@@H]12 [TX63451], CC1(C)C(=O)C(C#N)=C[C@]2(C)C(=O)c3cnn(-c4ccccc4)c3C[C@@H]12 [TX63456] is lower in pIC50: 6.86 for the first, less than 6.70 for the second. The first is the more potent here.

CC1(C)C(=O)C(C#N)=C[C@]2(C)c3nn(CC(F)(F)F)cc3CC[C@@H]12 [TX63454] and CC1(C)C(=O)C(C#N)=C[C@]2(C)c3nn(-c4ccccc4)cc3CC[C@@H]12 [TX63455] are within 0.2 log units of each other in pIC50: 6.87 for the first, 6.96 for the second.

Compared with CC1(C)C(=O)C(C#N)=C[C@]2(C)c3nn(-c4[nH]nc5c4CC[C@H]4C(C)(C)C(=O)C(C#N)=C[C@]54C)cc3CC[C@H]12 [TX63466], COc1ccccc1-c1c2c(nn1C)[C@@]1(C)C=C(C#N)C(=O)C(C)(C)[C@@H]1CC2 [TX63509] is 0.56 log units lower in pIC50: 7.98 for the first, 7.42 for the second.

Cn1nc2c(c1-c1ccc(Cl)cc1)CC[C@H]1C(C)(C)C(=O)C(C#N)=C[C@]21C [TX63486] and Cn1nc2c(c1-c1ccc(F)cc1)CC[C@H]1C(C)(C)C(=O)C(C#N)=C[C@]21C [TX63507] are within 0.2 log units of each other in pIC50: 7.32 for the first, 7.41 for the second.

First: Cn1cc2c(n1)[C@@]1(C)C=C(C#N)C(=O)C3(CCCC3)[C@@H]1CC2 [TX63487]
Second: Cn1nc2c(c1-c1ccccc1)CC[C@H]1C3(CCCC3)C(=O)C(C#N)=C[C@]21C [TX63504]
The pIC50 of the first is 0.63 log units lower: 7.07 for the first, 7.70 for the second. The second is the more potent here.

Cn1nc2c(c1-c1ccccc1Cl)CC[C@H]1C(C)(C)C(=O)C(C#N)=C[C@]21C [TX63491] and Cc1ccccc1-c1c2c(nn1C)[C@@]1(C)C=C(C#N)C(=O)C(C)(C)[C@@H]1CC2 [TX63508] are within 0.2 log units of each other in pIC50: 7.46 for the first, 7.48 for the second.

Cc1ccc(-c2c3c(nn2C)[C@@]2(C)C=C(C#N)C(=O)C(C)(C)[C@@H]2CC3)cc1 [TX63514] and COc1ccc(-c2c3c(nn2C)[C@@]2(C)C=C(C#N)C(=O)C(C)(C)[C@@H]2CC3)cc1 [TX63515] are within 0.2 log units of each other in pIC50: 7.43 for the first, 7.46 for the second.

CC1(C)C(=O)C(C#N)=C[C@]2(C)c3c(cnn3-c3ccccc3)CC[C@@H]12 [TX63524] and Cc1nc(-c2ccccc2)c2c(n1)[C@@]1(C)C=C(C#N)C(=O)C(C)(C)[C@@H]1CC2 [TX63529] are within 0.2 log units of each other in pIC50: 7.17 for the first, 7.34 for the second.

First: COc1ncc2c(n1)[C@@]1(C)C=C(C#N)C(=O)C(C)(C)[C@@H]1CC2 [TX63528]
Second: CC(C)c1ncc2c(n1)[C@@]1(C)C=C(C#N)C(=O)C(C)(C)[C@@H]1CC2 [TX63534]
The pIC50 of the first is 0.24 log units lower: 7.07 for the first, 7.31 for the second. The second is the more potent here.

In the case of C[C@@H]1C(=O)C(C#N)=C[C@]2(C)c3nn(C)cc3C[C@@H]12 [TX63533], the pIC50 was less than 6.70.

Same assay, conditions: RAW264.7 cells, 2 h pre-treatment (0-200 nM), then IFNγ 24 h; normalized to cell viability

For Cn1cc2c(n1)[C@@]1(C)C=C(C#N)C(=O)C(C)(C)[C@@H]1CC2 [TX63432], the pIC50 was 6.78.
